For one molecule, Activity results are on record in ChEMBL document CHEMBL2390819, “A convenient synthesis of GDP-D-rhamnose: the donor substrate for D-rhamnosyltransferase WbpZ from Pseudomonas aeruginosa PAO1” (Bioorg Med Chem Lett, 2013).

The source made the active and inactive calls. The calls are words filed in the database; no cut-off is given here.

The test concerns the target T1, D-rhamnosyltransferase WbpZ (Pseudomonas aeruginosa (strain ATCC 15692 / PAO1 / 1C / PRS 101 / LMG12228)) (UniProt Q9HTC0).
T1 sequence (whole entry): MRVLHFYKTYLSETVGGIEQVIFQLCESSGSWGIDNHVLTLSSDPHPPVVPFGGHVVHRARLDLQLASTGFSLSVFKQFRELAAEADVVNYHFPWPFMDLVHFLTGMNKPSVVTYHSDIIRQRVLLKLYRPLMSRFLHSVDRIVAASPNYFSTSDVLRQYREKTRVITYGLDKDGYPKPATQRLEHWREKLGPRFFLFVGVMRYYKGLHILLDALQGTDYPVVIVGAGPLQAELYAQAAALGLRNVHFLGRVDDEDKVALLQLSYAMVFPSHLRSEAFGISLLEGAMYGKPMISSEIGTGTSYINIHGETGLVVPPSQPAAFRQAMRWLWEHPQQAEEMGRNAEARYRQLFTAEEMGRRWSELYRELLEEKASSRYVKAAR
Description: Activity at Pseudomonas aeruginosa PAO1 his-tagged D-rhamnosyltransferase WbpZ expressed in Escherichia coli BL21 at 0.25 mM after 1 hr by MALDI-MS analysis.

On to `C[C@H]1O[C@H](OP(=O)(O)OP(=O)(O)OC[C@H]2O[C@@H](n3cnc4c(=O)[nH]c(N)nc43)[C@H](O)[C@@H]2O)[C@@H](O)[C@@H](O)[C@@H]1O`, for which the outcome was Active.
